# Target: T1, NKGD2-ULBP6 (Homo sapiens, UniProt P26718)
# T1 sequence (P26718 whole entry): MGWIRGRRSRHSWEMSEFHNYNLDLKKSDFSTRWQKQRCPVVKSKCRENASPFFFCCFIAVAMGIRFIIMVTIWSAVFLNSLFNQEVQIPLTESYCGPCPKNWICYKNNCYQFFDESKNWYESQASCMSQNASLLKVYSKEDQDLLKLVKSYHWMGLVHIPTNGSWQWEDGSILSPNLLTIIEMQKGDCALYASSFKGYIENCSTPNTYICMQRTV
# T1 sequence (Q5VY80 whole entry): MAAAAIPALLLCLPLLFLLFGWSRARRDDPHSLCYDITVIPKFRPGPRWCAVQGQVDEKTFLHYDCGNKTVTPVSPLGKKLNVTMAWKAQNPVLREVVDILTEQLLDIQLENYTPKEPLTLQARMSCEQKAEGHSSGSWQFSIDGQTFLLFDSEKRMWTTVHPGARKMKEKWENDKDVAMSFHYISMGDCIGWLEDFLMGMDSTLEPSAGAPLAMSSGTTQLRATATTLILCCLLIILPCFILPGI
# Experiment: Inhibition of NKG2D (unknown origin)/ULBP6 (unknown origin) protein-protein interaction by cell-based TR-FRET assay
row,Structure (SMILES),IC50
1,CN(C)C(=O)[C@@H](NC(=O)c1cc(-c2nnnn2C)ccc1-c1ccc(C(F)(F)F)cc1)c1cccc(C(F)(F)F)c1,2400 nM
2,CN(C)C(=O)[C@@H](NC(=O)c1cnccc1-c1ccc(C(F)(F)F)cc1)c1ccc(Cl)c(Cl)c1,400 nM
3,CN(C)C(=O)[C@@H](NC(=O)c1cnccc1-c1ccc(C(F)(F)F)cc1)c1cccc(C(F)(F)F)c1,1400 nM
4,Cc1n[nH]cc1-c1ccc(-c2ccc(C(F)(F)F)cc2)c(C(=O)NC(C(=O)N(C)C)c2cccc(C(F)(F)F)c2)c1 (racemic),2800 nM
5,CN(C)C(=O)C(NC(=O)c1ccccc1-c1ccc(C(F)(F)F)cc1)c1cccc(C(F)(F)F)c1 (racemic),5000 nM
6,CN(C)C(=O)[C@@H](NC(=O)c1ncccc1-c1ccc(C(F)(F)F)cc1)c1cccc(C(F)(F)F)c1,3800 nM
7,CN(C)C(=O)[C@@H](NC(=O)c1cnccc1-c1ccc(C(F)(F)F)cc1)c1cc(Cl)c(Cl)c(C(F)(F)F)c1,200 nM
8,O=C(N[C@H](C(=O)N1C[C@@H]2[C@@H](CO)[C@@H]2C1)c1cccc(C(F)(F)F)c1)c1ccccc1-c1ccc(C(F)(F)F)cc1,3100 nM
9,CN(C)C(=O)[C@@H](NC(=O)c1ccccc1-c1ccc(C(F)(F)F)cc1)c1cccc(C2CC2)c1,4200 nM
10,CN(C)C(=O)C(NC(=O)c1ccccc1-c1ccccc1)c1cccc(C(F)(F)F)c1 (stereo not given),> 20000 nM
11,CN(C)C(=O)[C@@H](NC(=O)c1ccccc1-c1ccc(C(F)(F)F)cc1)c1cccc(C(F)(F)F)c1,2700 nM
12,CN(C)C(=O)[C@@H](NC(=O)c1cc(-c2ccnn2C)ccc1-c1ccc(C(F)(F)F)cc1)c1cccc(C(F)(F)F)c1,700 nM
13,CN(C)C(=O)C(NC(=O)c1cc(-c2ccnn2C2COC2)ccc1-c1ccc(C(F)(F)F)cc1)c1cccc(C(F)(F)F)c1 (racemic),1100 nM
14,CN(C)C(=O)[C@@H](NC(=O)c1cc(C(=O)NS(C)(=O)=O)ccc1-c1ccc(C(F)(F)F)cc1)c1cccc(C(F)(F)F)c1,1700 nM
15,CN(C)C(=O)[C@@H](NC(=O)c1cnccc1-c1ccc(C(F)(F)F)cc1)c1cc(Cl)cc(C(F)(F)F)c1,200 nM
16,CN(C)C(=O)C(NC(=O)c1cccc(-c2ccc(C(F)(F)F)cc2)c1)c1cccc(C(F)(F)F)c1 (stereo not given),> 20000 nM
17,CN(C)C(=O)C(NC(=O)c1ccc(-c2ccc(C(F)(F)F)cc2)cc1)c1cccc(C(F)(F)F)c1 (stereo not given),> 20000 nM
18,CN(C)C(=O)[C@@H](NC(=O)c1cnccc1-c1ccc(C(F)(F)F)cc1)c1ccc(Cl)c(C(F)(F)F)c1,300 nM
19,CN(C)C(=O)[C@@H](NC(=O)c1ccccc1-c1ccc(C(F)(F)F)cc1)c1ccccc1 (racemic),> 20000 nM
20,CC1(C)C[C@H](CO)N(C(=O)C(NC(=O)c2ccccc2-c2ccc(C(F)(F)F)cc2)c2cccc(C(F)(F)F)c2)C1 (stereo not given in full),> 20000 nM
21,O=C(NCc1cccc(C(F)(F)F)c1)c1ccccc1-c1ccc(C(F)(F)F)cc1,> 20000 nM
22,CN(C)C(=O)C(c1cccc(C(F)(F)F)c1)N(C)C(=O)c1ccccc1-c1ccc(C(F)(F)F)cc1 (stereo not given),> 20000 nM

# Target: T2, NKGD2-MICA (Homo sapiens, UniProt P26718)
# T2 sequence (P26718 whole entry): T1 sequence (P26718 whole entry)
# T2 sequence (Q29983 whole entry): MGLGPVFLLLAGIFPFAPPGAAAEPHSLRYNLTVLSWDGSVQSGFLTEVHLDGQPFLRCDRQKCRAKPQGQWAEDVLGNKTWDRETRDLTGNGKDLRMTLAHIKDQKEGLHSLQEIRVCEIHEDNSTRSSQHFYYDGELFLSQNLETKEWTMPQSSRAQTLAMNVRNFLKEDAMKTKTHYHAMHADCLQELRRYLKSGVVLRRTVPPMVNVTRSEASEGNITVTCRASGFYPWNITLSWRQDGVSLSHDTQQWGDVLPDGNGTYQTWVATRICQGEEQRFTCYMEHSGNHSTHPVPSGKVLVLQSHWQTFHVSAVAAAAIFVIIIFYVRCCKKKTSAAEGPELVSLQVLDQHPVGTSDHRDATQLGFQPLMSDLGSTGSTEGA
# Experiment: Inhibition of NKG2D (unknown origin)/MICA (unknown origin) protein-protein interaction by cell-based TR-FRET assay
row,Structure (SMILES),IC50
1,CN(C)C(=O)[C@@H](NC(=O)c1ccccc1-c1ccc(C(F)(F)F)cc1)c1ccc(Cl)c(C(F)(F)F)c1,500 nM
2,CN(C)C(=O)[C@@H](NC(=O)c1cc(-c2nnnn2C)ccc1-c1ccc(C(F)(F)F)cc1)c1cccc(C(F)(F)F)c1,900 nM
3,CN(C)C(=O)[C@@H](NC(=O)c1cnccc1-c1ccc(C(F)(F)F)cc1)c1ccc(Cl)c(Cl)c1,200 nM
4,CN(C)C(=O)[C@@H](NC(=O)c1cnccc1-c1ccc(C(F)(F)F)cc1)c1cccc(C(F)(F)F)c1,400 nM
5,Cc1n[nH]cc1-c1ccc(-c2ccc(C(F)(F)F)cc2)c(C(=O)NC(C(=O)N(C)C)c2cccc(C(F)(F)F)c2)c1 (racemic),900 nM
6,CN(C)C(=O)C(NC(=O)c1ccccc1-c1ccc(C(F)(F)F)cc1)c1cccc(C(F)(F)F)c1 (racemic),2200 nM
7,CN(C)C(=O)[C@@H](NC(=O)c1ncccc1-c1ccc(C(F)(F)F)cc1)c1cccc(C(F)(F)F)c1,1000 nM
8,CN(C)C(=O)[C@@H](NC(=O)c1cnccc1-c1ccc(C(F)(F)F)cc1)c1cc(Cl)c(Cl)c(C(F)(F)F)c1,100 nM
9,O=C(N[C@H](C(=O)N1C[C@@H]2[C@@H](CO)[C@@H]2C1)c1cccc(C(F)(F)F)c1)c1ccccc1-c1ccc(C(F)(F)F)cc1,1100 nM
10,CN(C)C(=O)[C@@H](NC(=O)c1ccccc1-c1ccc(C(F)(F)F)cc1)c1cccc(C2CC2)c1,1800 nM
11,CN(C)C(=O)C(NC(=O)c1ccccc1-c1ccccc1)c1cccc(C(F)(F)F)c1 (stereo not given),> 20000 nM
12,CN(C)C(=O)[C@@H](NC(=O)c1ccccc1-c1ccc(C(F)(F)F)cc1)c1cccc(C(F)(F)F)c1,1200 nM
13,CN(C)C(=O)[C@@H](NC(=O)c1cc(-c2ccnn2C)ccc1-c1ccc(C(F)(F)F)cc1)c1cccc(C(F)(F)F)c1,300 nM
14,CN(C)C(=O)C(NC(=O)c1cc(-c2ccnn2C2COC2)ccc1-c1ccc(C(F)(F)F)cc1)c1cccc(C(F)(F)F)c1 (racemic),500 nM
15,CN(C)C(=O)[C@@H](NC(=O)c1cc(C(=O)NS(C)(=O)=O)ccc1-c1ccc(C(F)(F)F)cc1)c1cccc(C(F)(F)F)c1,700 nM
16,CN(C)C(=O)[C@@H](NC(=O)c1cnccc1-c1ccc(C(F)(F)F)cc1)c1cc(Cl)cc(C(F)(F)F)c1,100 nM
17,CN(C)C(=O)C(NC(=O)c1cccc(-c2ccc(C(F)(F)F)cc2)c1)c1cccc(C(F)(F)F)c1 (stereo not given),> 20000 nM
18,CN(C)C(=O)C(NC(=O)c1ccc(-c2ccc(C(F)(F)F)cc2)cc1)c1cccc(C(F)(F)F)c1 (stereo not given),> 20000 nM
19,CN(C)C(=O)[C@@H](NC(=O)c1cnccc1-c1ccc(C(F)(F)F)cc1)c1ccc(Cl)c(C(F)(F)F)c1,100 nM
20,CN(C)C(=O)[C@@H](NC(=O)c1ccccc1-c1ccc(C(F)(F)F)cc1)c1ccccc1 (racemic),> 20000 nM
21,CC1(C)C[C@H](CO)N(C(=O)C(NC(=O)c2ccccc2-c2ccc(C(F)(F)F)cc2)c2cccc(C(F)(F)F)c2)C1 (stereo not given in full),> 20000 nM
22,O=C(NCc1cccc(C(F)(F)F)c1)c1ccccc1-c1ccc(C(F)(F)F)cc1,> 20000 nM
23,CN(C)C(=O)C(c1cccc(C(F)(F)F)c1)N(C)C(=O)c1ccccc1-c1ccc(C(F)(F)F)cc1 (stereo not given),> 20000 nM
